Among the data in patent US8785457B2 (Cellzome Limited, priority 2009, dated 2014) are IC50 values, retold here.

Experiment [1] relates to S6RP serine-240/244 phosphorylation. Description: In vitro Phospho-S6 cellular assay (pS6RP S240/244) in HEK293T/17 cells. The class given is cell-based. The conditions noted are these: Homo sapiens, 2 hours, read-out: pS6 IC50. A digest of the protocol: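 Compounds were tested at eight concentrations on adhered HEK293T/17 cells for 2 h at 37 °C (2% FCS, 0.1% DMSO), at 80,000 cells/well for pAkt S473 and 40,000 for pS6RP S240/244. Lysates were captured on phospho-specific antibody MSD plates with Sulfo-Tag detection. Values came from nonlinear variable-slope regression.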

Experiment [2] deals with T1, PI3 Kbeta (PI3 Kb) (Homo sapiens, UniProt P42338).
T1 construct: endogenous in cells; host or cells: cell lysate
The experiment in a line: kinobeads assay, PI3Kbeta. The experiment is classed as binding. The conditions noted are these: Further Kinobeads Data; read-out: PI3Kb. A digest of the protocol: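 In this bead competition format, compound and immobilized phenylmorpholin-chromen ligand compete for kinases in cell lysate. Eluted captured kinases were measured by multiplexed immunodetection, and IC50 was calculated.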

Structures are written as SMILES.

T1 sequence (P42338 whole entry): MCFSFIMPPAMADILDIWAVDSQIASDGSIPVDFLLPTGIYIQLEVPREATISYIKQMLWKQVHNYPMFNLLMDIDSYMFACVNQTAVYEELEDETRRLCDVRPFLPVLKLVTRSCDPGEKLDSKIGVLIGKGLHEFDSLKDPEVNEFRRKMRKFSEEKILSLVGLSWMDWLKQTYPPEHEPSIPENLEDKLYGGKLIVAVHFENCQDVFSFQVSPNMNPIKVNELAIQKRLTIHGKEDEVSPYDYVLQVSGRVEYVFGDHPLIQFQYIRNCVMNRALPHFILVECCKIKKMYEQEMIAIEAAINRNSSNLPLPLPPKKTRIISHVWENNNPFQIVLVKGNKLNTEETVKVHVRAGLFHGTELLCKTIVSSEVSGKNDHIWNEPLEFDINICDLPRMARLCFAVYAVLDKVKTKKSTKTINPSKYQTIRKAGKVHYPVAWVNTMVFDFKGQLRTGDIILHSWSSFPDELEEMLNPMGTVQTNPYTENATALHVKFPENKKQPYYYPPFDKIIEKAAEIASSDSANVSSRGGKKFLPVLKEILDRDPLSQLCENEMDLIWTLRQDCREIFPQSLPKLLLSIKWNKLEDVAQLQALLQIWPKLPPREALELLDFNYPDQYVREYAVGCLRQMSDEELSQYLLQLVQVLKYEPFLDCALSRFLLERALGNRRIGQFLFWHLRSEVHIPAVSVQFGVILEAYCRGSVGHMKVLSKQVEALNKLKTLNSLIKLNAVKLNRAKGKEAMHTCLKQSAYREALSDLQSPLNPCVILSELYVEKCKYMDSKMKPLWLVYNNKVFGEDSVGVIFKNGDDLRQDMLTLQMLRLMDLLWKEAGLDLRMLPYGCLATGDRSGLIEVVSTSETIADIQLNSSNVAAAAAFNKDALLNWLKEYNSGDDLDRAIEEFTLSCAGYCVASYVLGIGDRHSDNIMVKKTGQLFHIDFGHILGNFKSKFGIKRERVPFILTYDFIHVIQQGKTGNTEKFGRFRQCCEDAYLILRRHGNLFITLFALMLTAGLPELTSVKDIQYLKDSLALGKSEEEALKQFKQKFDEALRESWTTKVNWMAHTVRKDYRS
T1 sequence (P27986 whole entry partner): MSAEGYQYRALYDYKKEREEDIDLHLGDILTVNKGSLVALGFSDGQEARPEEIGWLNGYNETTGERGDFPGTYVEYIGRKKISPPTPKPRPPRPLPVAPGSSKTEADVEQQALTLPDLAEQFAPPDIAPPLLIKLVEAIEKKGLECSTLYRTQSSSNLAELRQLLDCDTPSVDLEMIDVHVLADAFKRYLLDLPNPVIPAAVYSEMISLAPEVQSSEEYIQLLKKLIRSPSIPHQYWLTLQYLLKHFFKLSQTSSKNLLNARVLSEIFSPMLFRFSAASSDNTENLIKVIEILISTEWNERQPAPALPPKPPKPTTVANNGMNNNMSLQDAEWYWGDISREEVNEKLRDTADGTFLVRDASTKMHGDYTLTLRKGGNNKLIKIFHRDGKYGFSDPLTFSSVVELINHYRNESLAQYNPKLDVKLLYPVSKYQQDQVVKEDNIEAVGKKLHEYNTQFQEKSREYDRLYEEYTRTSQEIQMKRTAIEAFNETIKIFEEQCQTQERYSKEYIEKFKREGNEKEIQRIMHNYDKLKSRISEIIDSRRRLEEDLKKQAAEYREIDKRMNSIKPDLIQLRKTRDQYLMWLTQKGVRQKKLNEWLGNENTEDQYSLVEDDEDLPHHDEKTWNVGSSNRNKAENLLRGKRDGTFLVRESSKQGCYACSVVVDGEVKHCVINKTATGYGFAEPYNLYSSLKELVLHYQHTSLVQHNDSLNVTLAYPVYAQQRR

On to `COC(=O)N1Cc2nc(-c3ccc(NC(=O)NCCF)cc3F)nc(N3CCOC[C@@H]3C)c2C1` [Example 183, (S)-methyl 2-(2-fluoro-4-(3-(2-fluoroethyl)ureido)phenyl)-4-(3-methylmorpholino)-5H-pyrrolo[3,4-d]pyrimidine-6(7H)-carboxylate], for which the values for the IC50 in experiment [1] and in experiment [2] were 0.06 µM and over 10 µM, respectively.
For `CC(C)N1Cc2nc(-c3ccc(NC(=O)NCCF)cc3F)nc(N3CCOCC3)c2C1` [Example 185, 1-(3-fluoro-4-(6-isopropyl-4-morpholino-6,7-dihyro-5H-pyrrolo[3,4-d]pyrimidin-2-yl)phenyl)-3-(2-fluoroethyl)urea] the same measures were 0.36 µM and over 10 µM.
Taken in the same sequence, the figures for `CC(C)N1Cc2nc(-c3ccc(NC(=O)NCCF)cc3F)nc(N3CCOC[C@@H]3C)c2C1` [Example 186, (S)-1-(3-fluoro-4-(6-isopropyl-4-(3-methylmorpholino)-6,7-dihydro-5H-pyrrolo[3,4-d]pyrimidin-2-yl)phenyl)-3-(2-fluoroethyl)urea] were 0.197 µM and over 10 µM.
Taken in the same sequence, the figures for `CC(C)N1Cc2nc(-c3ccc(NC(=O)NCCO)cc3F)nc(N3CCOC[C@@H]3C)c2C1` [Example 187, (S)-1-(3-fluoro-4-(6-isopropyl-4-(3-methylmorpholino)-6,7-dihydro-5H-pyrrolo[3,4-d]pyrimidin-2-yl)phenyl)-3-(2-hydroxyethyl)urea] were 0.563 µM and over 10 µM.
`C[C@@H]1COCCN1c1nc(-c2ccc(NC(=O)NC3CC3)cc2F)nc2c1CN(C(=O)C1CC1)C2` [Example 188, (R)-1-(4-(6-(cyclopropanecarbonyl)-4-(3-methylmorpholino)-6,7-dihydro-5H-pyrrolo[3,4-d]pyrimidin-2-yl)-3-fluorophenyl)-3-cyclopropylurea]: the figures for the IC50 in experiment [1] and in experiment [2] were 0.218 µM and over 10 µM, respectively.
For `CC(C)NC(=O)N1CCc2c(nc(-c3ccc(NC(=O)NC4CC4)cc3F)nc2N2CCOC[C@@H]2C)C1` [Example 189, (S)-2-(4-(3-cyclopropylureido)-2-fluorophenyl)-N-isopropyl-4-(3-methylmorpholino)-5,6-dihydropyrido[3,4-d]pyrimidine-7(8H)-carboxamide] the same measures were 0.133 µM and over 10 µM.
For `C[C@@H]1COCCN1c1nc(-c2ccc(NC(=O)NC3CC3)cc2F)nc2c1CN(C=O)C2` [Example 190, (R)-1-cyclopropyl-3-(3-fluoro-4-(6-formyl-4-(3-methylmorpholino)-6,7-dihydro-5H-pyrrolo[3,4-d]pyrimidin-2-yl)phenyl)urea] the same measures were 0.351 µM and over 10 µM.
For `C[C@@H]1COCCN1c1nc(-c2ccc(NC(=O)NC3CC3)cc2F)nc2c1CN(S(C)(=O)=O)C2` [Example 191, (R)-1-cyclopropyl-3-(3-fluoro-4-(4-(3-methylmorpholino)-6-(methylsulfonyl)-6,7-dihydro-5H-pyrrolo[3,4-d]pyrimidin-2-yl)phenyl)urea], the IC50 is 0.18 µM in experiment [1] and over 10 µM in experiment [2].
